Test results taken from patent US3976770A, “Sar'-(OMe)Thr^8 Angiotensin II as an angiotensin II antagonist” (priority 1975, dated 1976).

How the values were obtained:
[1] = tested on: blood pressure; experiment: in vivo pressor response on infusion into anesthetized, vagotomized rats; settings: scale set artificially at 100 for angiotensin II
Method: In the in vivo assays, rats were anesthetized with sodium amytal and further treated with 0.6 mg atropine and pentolinium tartrate. They were vagotomized and direct recording of the blood pressure was measured through the carotid artery, while the femoral artery was used for infusing the desired dose over a period of 30 minutes in a physiological saline solution.
The dose-response curves of angiotensin II at 0.9 to 54 ng/kg/min. were compared by linear regression analysis with those of the antagonist at doses of 1, 10, 100 and 1000 ng/kg/min. Infusion of the above antagonist into rats thus prepared led to the initial transient pressor response of 0.48 on a scale set artificially at 100 for angiotensin II using the same system.

[2] = duration of action after i.m. injection of an oil solution; type: in vivo; settings: single i.m. injection, dissolved in oil
Method: The duration of action of the compound can be prolonged by injecting an oil solution intramuscularly. Oils suitable for this purpose are cod liver oil, sesame oil, refined coconut oil, etc. Antagonistic effects are thus observed for 24 hours or longer after a single i.m. injection of the drug dissolved in such an oil.

[3] = tested on: acute unilateral renal hypertensive rats; experiment: blood pressure in acute unilateral renal hypertensive rats; type: in vivo; settings: intravenous infusion
[4] = tested on: pressor response of angiotensin II; experiment: blocking of the pressor response of angiotensin II in ganglion blocked rats; type: in vivo
Method: For determining its antagonistic properties the compound was infused intravenously in ganglion blocked rats at a dose level of 125, 250, 500, 1250 ng/kg/min. The blocking effect of the compound was calculated from the dose-response curve of angiotensin II before and during the infusion of the analog. General procedure adopted for this assay has been described by Bumpus et al., Circ. Res. 32-33 (Supplement I), I-150 (1973). […] The dose-ratio obtained was 62.50 ± 14.93 at a dose-level of 250 ng/kg/min.

[5] = water solubility and storage of solution; type: physicochemical
Method: Since the above compound is particularly suitable for injection or infusion, it is particularly valuable that the compound is watersoluble. A suitable dosage unit can be prepared by simply dissolving the above compound in water or physiological saline at a concentration of between 50 and 6000 ng/ml. […] A commonly employed buffer for an injectable solution is Tris(hydroxymethyl) aminomethane but simple salts such as sodium phosphate or acetate can be used. Preferably, the vehicle or medium in which the compound of Formula I is dissolved for an injectable or infusable solution is buffered to a pH of 7 to 7.5.

water solubility [5]: watersoluble
storage of solution without deterioration ([5]; solution in water or physiological saline, 50-6000 ng/ml, proper conditions): several weeks without deterioration
SMILES: CC[C@H](C)[C@H](NC(=O)[C@H](Cc1ccc(O)cc1)NC(=O)[C@@H](NC(=O)[C@H](CCCNC(=N)N)NC(=O)CNC)C(C)C)C(=O)N[C@@H](Cc1cnc[nH]1)C(=O)N1CCC[C@H]1C(=O)N[C@H](C(=O)O)[C@@H](C)OC [Formula I, Sar'-(OMe)Thr^8 Angiotensin II]
initial transient pressor response [1]: 0.48
duration of antagonistic effects [2]: ≥ 24 h
blood pressure [3]: capable of reducing blood pressure
dose-ratio ([4]; dose-level of 250 ng/kg/min, intravenous infusion, ganglion blocked rats): 62.50 ± 14.93
pressor effect of angiotensin II ([4]; intravenous infusion into rats in a very small amount): inhibited
dose level at which the pressor response of angiotensin II was blocked ([4]; intravenous infusion, ganglion blocked rats): ≥ 125 ng/kg/min
